# Assay results reported in patent publication US8911953B2, “TDF-related compounds and analogs thereof, analogs and bioactive fragments” (Thrasos Innovation, Inc., priority 2005, dated 2014).
# No end group written: not given here.
# System: vascular endothelial cells
# Assay: Smad 1, 5 phosphorylation in vascular endothelial cells (Western blot)
# Format: cell-based
# Details: added to vascular endothelial cells in culture
# Description: (§1) Phosphorylation and nuclear translocation of Smads occurs following the activation of Type I and Type II receptors and subsequent signal transduction to intracellular Smad targets. Phosphorylation and nuclear translocation of R-Smad in HK-2, vascular endothelial, human prostate or other cells by TDFRP compounds is assayed by immuno-fluorescent microscopy methods, using anti-phospho Smad 1/5 antibodies according to the procedure of H Aoki, M Fujii, T Imamura, K Yagi, K Takehara, M Kato and K Miyazono. J. of Cell Sci. 114, 1483-1489, 2001) and by Western blot analysis (FIGS. 2, 3, 18, 2X).
# The detection of Smad phosphorylation by Western analysis, for example in LNCaP (prostate cancer cells) or EC (vascular endothelial cells) in culture medium can be examined after exposure to varying concentrations of TDFRP or control compounds. BMP-7 serves as a positive control. Cells are lysed in RIPA lysis buffer (50 mM Tris-HCl at pH 8.0, 150 mM NaCl, 1% NP-40, 0.5% sodium deoxycholate, 0.1% SDS) containing 1 mM PMSF, 1 mM sodium orthovanadate, and 10 ug/mL proteinase inhibitor cocktail. Lysates are incubated on ice for 15 minutes, centrifuged, and transferred supernatant to a clean tube. 50 to 100 ug is used for analysis by SDS-PAGE. Resolved proteins are electro transferred onto PVDF membrane. The blot is blocked by incubating in 3% non-fat dry milk prepared in PBS at room temperature for 1 hour with constant slow agitation. The blot is incubated with 1-2 ug/mL of primary antibody (rabbit anti-phospho-Smad 1) prepared in PBS-milk, overnight with agitation at 4 degree C., washed twice with PBS, and incubated with secondary antibody (anti rabbit HRP conjugated IgG, 1:3000 dilution) at room temperature for 2 hours with agitation. After washing in PBS-0.05% Tween 20 for 5 minutes and rinsing, Smad phosphorylation is detected via an HRP reaction according to manufacturer's instructions (FIGS. 2, 3, 18, 2X).
# as §1, with “HK-2” for “HK-2, vascular endothelial, human prostate or other”, “analysis in various cell types” for “analysis”, “27).” for “2X).”
# For detection of Smad phosphorylation by Western analysis, LNCaP (prostate cancer cells) or EC (vascular endothelial cells) in culture medium are exposed to varying concentrations of TDFRP or control compounds. BMP-7 served as a positive control. Cells are lysed in RIPA lysis buffer (50 mM Tris-HCl at pH 8.0, 150 mM NaCl, 1% NP-40, 0.5% sodium deoxycholate, 0.1% SDS) containing 1 mM PMSF, 1 mM sodium orthovanadate, and 10 ug/mL proteinase inhibitor cocktail. Lysates are incubated on ice for 15 minutes, centrifuged, and transferred supernatant to a clean tube. 50 to 100 ug is used for analysis by
# SDS-PAGE. Resolved proteins are electro transferred onto PVDF membrane. The blot is blocked by incubating in 3% non-fat dry milk prepared in PBS at room temperature for 1 hour with constant slow agitation. The blot is incubated with 1-2 ug/mL of primary antibody (rabbit anti-phospho-Smad 1) prepared in PBS-milk, overnight with agitation at 4 degree C., washed twice with PBS, and incubated with secondary antibody (anti rabbit HRP conjugated IgG, 1:3000 dilution) at room temperature for 2 hours with agitation. After washing in PBS-0.05% Tween 20 for 5 minutes and rinsing, Smad phosphorylation is detected via an HRP reaction according to manufacturer's instructions (FIGS. 3, 27).
row,Substance,"phosphorylation and activation of intracellular Smad 1, 5"
1,CIVNSSDDFLCKKYRS [SEQ ID NO:16],"phosphorylation and activation of intracellular Smad 1, 5"
2,CYFDDSSNVICKRYRS [SEQ ID NO:24],"phosphorylation and activation of intracellular Smad 1, 5"
3,CYFDDSSNVLCKKYRS-NH2 (not fully specified (bridges); printed as CYFDDSSNVLCKKYRS-NH2; cysteine pairing not given here) [SEQ ID NO:33],"phosphorylation and activation of intracellular Smad 1, 5"
4,CYFDDSSQVICKKYRS [SEQ ID NO:43],"phosphorylation and activation of intracellular Smad 1, 5"
5,CYFDDSSSVLCKKYRS [SEQ ID NO:209],"phosphorylation and activation of intracellular Smad 1, 5"
6,CYFNDSSNCLLKKYRS [SEQ ID NO:229],"phosphorylation and activation of intracellular Smad 1, 5"

# System: synovial membrane-derived mesenchymal stem cells
# Assay: Chondrogenic differentiation, extracellular matrix deposition by alcian blue staining
# Format: cell-based
# Details: not given
# Text: Influence of TDFRP compounds (SEQ ID NO 16, 33, 45, 217, 221) on chondrogenic differentiation of synovial membrane-derived mesenchymal stem cells leading to increased extracellular matrix deposition as determined by alcian blue staining. TDFRP compounds, SEQ ID NO:16, 33, 45, 217, and 221 correspond to Compounds E, A, C, B, and D, respectively.
# TDFRP compounds can be used to in the prophylaxis or treatment of diseases of the oral cavity, e.g., by affecting direct capping of bioactive molecules, or inducing the formation of reparative dentin and coronal or radicular pulp mineralization (Goldberg et al., Am J. Dent. 2003 February; 16(1):66-76). Further, TDFRP can be used in the prophylaxis or treatment of periodontal disease. […] TDFRP compounds can be used in the prophylaxis or treatment of traumatic brain injury, e.g., stroke, see, e.g., Cairns and Finkelstein, Phys Med Rehabil Clin N Am. 2003 February; 14(1 Suppl):S135-42). Intravenous administration of BMP-7 after ischemia improves motor function in stroke rats (Chang et al., Stroke. 2003 February; 34(2):558-64) and the TDFRP compounds may protect against or repair reperfusion injury. […] Thrasos compounds that bind to ALK3, a type I receptor for BMP, are therefore analyzed to examine if they induce chondrogenic differentiation leading to extra cellular matrix deposition in synovial membrane-derived mesenchymal stem cells. […]
row,Substance,deposition of the extracellular matrix
1,CIVNSSDDFLCKKYRS [SEQ ID NO:16],significantly increased
2,CYFNDSSQVLCKRYRS [SEQ ID NO:221],significantly increased

# System: rat osteosarcoma (17/2.8) cells
# Assay: Rat osteosarcoma (ROS) cell-based alkaline phosphatase assay
# Details: 0.02-200 uM, 2 days, relative to BMP-7 standard
# Description: BMP interactions with Type I and Type II receptors can induce alkaline phosphatase activity, a marker for osteoblast activity, in ROS cells. An assay procedure as described in Maliakal, J. C., Asahina, I., Hauschka, P. V., and Sampath, T. K. (1994) Growth factors 11, 227-234, was used to determine the biological activities of TDFRP compounds. In a typical experiment, rat osteosarcoma (17/2.8) cells are plated in 96 well plates (3.0×10^4 cells/well) and incubated overnight at 37 C in 5-6% CO2 incubator. The next day, healthy and confluent cells are treated with increasing concentrations of BMP-7 standard (1-10,000 ng/ml) served as positive control or TDFRP compounds (0.02-200 uM) prepared in medium containing 1% FBS and incubated for 2 days at 37 C in 5-6% CO2 incubator. The cellular content of alkaline phosphatase activity is determined by the method of Reddi and Huggins (Reddi, A. H., and Huggins, C. B (1972) Proc. Natl. Acad. Sci. USA 69, 1601-1605). Enzyme estimations are performed in 96 well plates. Following removal of culture medium, cells are washed with pre-warmed PBS (150 ul) and incubated in 100 ul of pre-warmed 1% Triton X-100 for 30 minutes at 37 C. Plates are centrifuged for 10 minutes at full speed, and recovered samples (15 ul) are assayed for enzyme activity by adding 90 ul p-nitrophenyl phosphate (Sigma) as a substrate in 0.05 M glycine-NaOH buffer, pH 9.3 and incubating for 20 minutes at 37 C. The reaction is stopped by adding 75 ul of 0.2 N NaOH/well and absorbance at 405/490 nm is measured on a Dynatech MR 700 plate reader. Results are expressed as relative activities compared to a BMP-7 standard.
# BMP interactions with Type I and Type II receptors can induce alkaline phosphatase activity, a marker for osteoblast activity, in ROS cells. An assay procedure as described earlier (Maliakal, J. C., Asahina, I., Hauschka, P. V., and Sampath, T. K. (1994) Growth factors 11, 227-234) was used to determine the biological activities of TDFRP compounds. In a typical experiment, rat osteosarcoma (17/2.8) cells are plated in 96 well plates (3.0×10^4 cells/well) and incubated overnight at 37° C. in 5-6% CO2 incubator. […] The cellular content of alkaline phosphatase activity is determined by the method of Reddi and Huggins (Reddi, A. H., and Huggins, C. B (1972) Proc. Natl. Acad. Sci. USA 69, 1601-1605). […] The reaction is stopped by adding 75 ul of 0.2 N NaOH/well and absorbance at 405/490 nm is measured on a Dynatech MR 700 plate reader. Results are expressed as relative activities compared to a BMP-7 standard.
row,Substance,induction of alkaline phosphatase activity
1,CYFDDSSKVICKKYRS [SEQ ID NO:130],did not induce
2,CYFDDSSQVLCKKYRS [SEQ ID NO:65],did not induce
3,CYFNDSSQVLCKRYRS [SEQ ID NO:221],did not induce
